Test results from PubChem BioAssay (NCI).
Where “and” joins values, the source holds several entries; their conditions need not be identical. Equal values may be shown once.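 Step 1: Grow cells in 96-well plates. Step 2: Expose to compound for 48 hours at 5 concentrations. Step 3: Interpolate endpoints linearly; if unreached, use highest concentration. At the GI50, growth is halved. Definition used: TGI = concentration required for complete inhibition of growth.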

Experiments:
Experiment in all cases: NCI tumour cell line growth inhibition, 48 h
TK-10 renal = tested on: TK-10 renal
BT-549 breast = tested on: BT-549 breast
DU-145 prostate = tested on: DU-145 prostate
UACC-62 melanoma = tested on: UACC-62 melanoma
OVCAR-8 ovarian = tested on: OVCAR-8 ovarian
NCI-H23 lung = tested on: NCI-H23 lung
MCF7 breast = tested on: MCF7 breast
LOX IMVI melanoma = tested on: LOX IMVI melanoma
HCT-116 colon = tested on: HCT-116 colon
EKVX NSCLC = tested on: EKVX NSCLC

SMILES | GI50 (TK-10 renal) [µM] | TGI (TK-10 renal) [µM] | TGI (BT-549 breast) [µM] | TGI (DU-145 prostate) [µM] | TGI (UACC-62 melanoma) [µM] | GI50 (OVCAR-8 ovarian) [µM] | TGI (OVCAR-8 ovarian) | TGI (NCI-H23 lung) [µM] | TGI (MCF7 breast) [µM] | GI50 (LOX IMVI melanoma) [µM] | TGI (LOX IMVI melanoma) | GI50 (HCT-116 colon) [µM] | TGI (HCT-116 colon) [µM] | TGI (EKVX NSCLC) [µM] | GI50 (BT-549 breast) [µM] | GI50 (DU-145 prostate) [µM] | GI50 (UACC-62 melanoma) [µM] | GI50 (NCI-H23 lung) [µM] | GI50 (MCF7 breast) [µM] | GI50 (EKVX NSCLC) [µM]
C/C(=N\NC(=S)N1CCN(C2CCCCCC2)CC1)c1ccccn1 | 0.42 | 3.34 | 2.78 | 2.44 | 1.95 | < 0.001 | 7.94 µM and 2.63 µM | 5.77 | 2.05 | 0.0173 | 5.29 µM and 1.83 µM | < 0.001 | 1.65 | 2.86 | – | – | – | – | – | –
O=C1CCCCC=C1C[N+](=O)[O-] | 24.7 | 54.8 | 61.4 | 96.3 | 34.6 | 26.6 | > 100 µM | 69.9 | 55.1 | 18.4 | 39.1 µM | 17 | 50.8 | > 100 | 26 | 27.3 | 18.7 | 27.5 | 20 | 34.5
COC(=O)c1ccc2c(c1)C(=O)c1c-2n(C)c(=O)c2cc(OC)c(OC)cc12 | 32.1 | > 50 | > 50 | > 50 | > 50 | > 50 | > 50 µM | > 50 | > 50 | > 50 | > 50 µM | 40.1 | > 50 | > 50 | > 50 | > 50 | > 50 | > 50 | > 50 | > 50
CCCCCc1cc[n+](CC(=O)c2ccc([N+](=O)[O-])cc2)cc1 | 9.65 | 33.7 | 20.5 | 37.8 | 24.1 | 5.85 | 39.6 µM | 11.9 | 13.4 | 8.15 | 22.1 µM | 3.14 | 11.4 | 17.5 | 4.15 | 8.72 | 10.8 | 2.89 | 3.37 | 3.5
